Experimental data: patent US20090209633A1, “Treatment of Pain With Resiniferatoxin and Related Analogs” (priority 2006, published 2009)

Columns and labels:
[1] = target: T1, rat TRPV1 (Rattus norvegicus, UniProt O35433); test: Whole-cell currents in Xenopus laevis oocytes expressing TRPV1 (double-electrode voltage clamp); type: cell-based; conditions: ruthenium red 100 μM; RTX 10 nM repeated application
T1 construct: expressed in transfected cells; host or cells: Xenopus laevis oocytes injected with TRPV1 cRNA
T1 sequence (O35433 whole entry): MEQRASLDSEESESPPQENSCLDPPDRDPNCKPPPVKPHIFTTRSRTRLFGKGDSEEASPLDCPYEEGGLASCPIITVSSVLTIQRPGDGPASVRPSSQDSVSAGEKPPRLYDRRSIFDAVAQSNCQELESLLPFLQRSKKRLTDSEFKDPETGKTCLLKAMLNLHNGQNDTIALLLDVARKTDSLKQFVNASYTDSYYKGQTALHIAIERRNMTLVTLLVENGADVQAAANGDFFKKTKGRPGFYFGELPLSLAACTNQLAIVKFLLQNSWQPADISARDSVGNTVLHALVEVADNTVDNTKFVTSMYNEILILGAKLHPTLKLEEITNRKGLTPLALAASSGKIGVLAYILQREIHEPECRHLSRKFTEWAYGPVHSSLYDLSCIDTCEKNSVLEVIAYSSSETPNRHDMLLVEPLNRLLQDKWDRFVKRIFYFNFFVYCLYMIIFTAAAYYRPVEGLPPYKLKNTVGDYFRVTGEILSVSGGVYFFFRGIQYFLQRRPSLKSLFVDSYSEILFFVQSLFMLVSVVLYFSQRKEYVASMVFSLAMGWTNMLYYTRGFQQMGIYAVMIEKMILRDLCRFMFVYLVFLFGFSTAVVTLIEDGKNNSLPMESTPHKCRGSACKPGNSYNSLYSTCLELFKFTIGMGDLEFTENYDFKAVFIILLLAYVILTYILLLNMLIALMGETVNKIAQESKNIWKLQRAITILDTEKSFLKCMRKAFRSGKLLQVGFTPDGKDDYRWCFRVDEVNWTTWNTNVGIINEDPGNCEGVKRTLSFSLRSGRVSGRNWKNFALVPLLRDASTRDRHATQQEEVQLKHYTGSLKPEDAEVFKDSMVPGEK
Procedure: Rat TRPV1 dcRNA. Cloned rat TRPV1 was obtained from the Julius Lab at the University of California San Francisco. TRPV1 cRNA was obtained using standard techniques known to those of skill in the art.
(§1) Electrophysiology. Whole-cell and single-channel currents were recorded from rat DRG neurons in culture and from Xenopus laevis oocytes injected with rat TRPV1 cRNA. Animals were cared for according to the standards of the National Institutes of Health (NIH). All animal use protocols were approved by Southern Illinois University School of Medicine Animal Care Committee.
Oocytes were obtained by an abdominal incision after anaesthetizing the frog by immersion in a 0.05% solution of 3-aminobenzoic acid ethyl ester (MS222). Animals were killed by a subcutaneous injection of a 2% solution of MS222 according to NIH guidelines. One day after separating the oocytes from the follicular layer, 50-70 nl TRPV1 cRNA was injected using a Drummond Nanoject (Drummond Scientific Co., Broomall, Pa., USA). Oocytes were used for recording from 3 days after the injection. Double-electrode voltage clamp was performed using a Warner amplifier (Warner Instruments, Hamden, Conn., USA). Data were digitized and stored on videotape or directly stored on the computer using a LabView interface (National Instruments, Austin, Tex., USA). Experiments were performed at 21-23° C. Oocytes were placed in a Perspex chamber superfused (5-10 ml min^−1) with Ca^2+-free Ringer solution containing (mM): NaCl 100, KCl 2.5 and Hepes 5; pH adjusted to 7.35 with NaOH. Current-voltage relationships were measured using 1-s voltage ramps from −80 to +80 mV.
This example tests the activation of whole-cell currents in oocytes by RTX. Whole-cell currents were recorded from oocytes heterologously expressing TRPV1. […] Agonist-induced currents are shown after subtracting the leak current in the absence of the agonist. […] In order to quantify this, we calculated the ratio of outward and inward currents. […] PKC activation increases sensitivity as well as TRPV1 translocation. […] (Szallasi et al. 1990b; Caterina et al. 1997; Marshall et al. 2003.)

[2] = target: T2, native TRPV1 (Rattus norvegicus, UniProt O35433); test: Whole-cell currents in cultured embryonic DRG neurons (patch clamp); type: cell-based; conditions: capsazepine 10 μM
T2 construct: RTX-induced membrane currents on native TRPV1 in embryonic DRG neurons grown in culture; endogenous in cells; host or cells: primary rat E18 DRG neurons
T2 sequence (O35433 whole entry): as above
Procedure: as §1
Primary DRG neuronal cultures were prepared from embryonic day 18 (E18) rat embryos. Adult pregnant rats were killed with an overdose of isoflurane. DRG were dissected and the cells were dissociated by triturating with a fire-polished glass pipette. Cells were cultured in Neurobasal medium (Life Technologies, Buffalo, N.Y., USA), supplemented with 10% fetal bovine serum (FBS), and grown on poly-D-lysine-coated glass coverslips. Cells were used from 5 to 15 days after plating. Small diameter (<30 μm) rounded neurons were selected for patch-clamp experiments. […] The Giga-seal patch-clamp technique was used to record whole-cell currents. For perforated-patch recordings, the bath solution contained (mM): sodium gluconate 140, KCl 2.5, Hepes 10, MgCl2 1 and ethylene glycol bis(2-aminoethyl ether)-N,N,N′N′-tetraacetic acid (EGTA) 1.5 (pH adjusted to 7.35 with NaOH), and the pipette solution contained (mM): sodium gluconate 130, NaCl 10, KCl 2.5, Hepes 10, MgCl2 1, EGTA 1.5 and 240 μg/ml^−1 amphotericin B (pH adjusted to 7.35 with NaOH). For current-clamp experiments the pipette solution contained (mM): potassium gluconate 130, NaCl 10, MgCl2 1, EGTA 0.2, K2ATP 1 and Hepes 10; pH adjusted to 7.35 with NaOH. Extracellular solution for current- and voltage-clamp experiments contained (mM): NaCl 140, KCl 4, MgCl2 1 and Hepes 10; pH adjusted to 7.35 with NaOH. Currents were recorded using a WPC 100 patch-clamp amplifier (E.S.F. Electronic, Goettingan, Germany). Data were filtered at 10 kHz, digitized (VR-10B, Instrutech Corp., Great Neck, N.Y., USA) and stored on videotapes or directly stored in the computer using a LabView interface. For analysis of whole-cell currents, data were filtered at 1 kHz (−3 db frequency with an 8-pole low-pass Bessel filter, Warner Instruments, LPF-8) and digitized at 2 kHz.
This example tests the activation of whole-cell current in DRG neurons by RTX. We determined the properties of RTX-induced membrane currents on native TRPV1 in embryonic DRG neurons grown in culture. […] Protons were not used to elicit currents because of the presence of acid-sensitive ion channels in these neurons.

N.N.N.N.N.N.N.N.N.N.N.N.N.N.[Cl-].[Cl-].[Cl-].[Cl-].[Cl-].[Cl-].[O-2].[O-2].[Ru+3].[Ru+3].[Ru+4] [ruthenium red, reference compound]
block of RTX-induced current [1]: readily blocked

Oc1cc2c(cc1O)CN(C(=S)NCCc1ccc(Cl)cc1)CCC2 [capsazepine]
block of current induced by capsaicin (1 μM) and RTX (10 nM) [2]: completely blocked | rate of block induced by capsazepine ([2]; RTX-induced (10 nM) currents): 612.3 ± 219 s | rate of block induced by capsazepine ([2]; capsaicin-induced (1 μM) currents): 18.4 ± 2.8 s
